# PMC8348780, “Preparation and Evaluation of Novel Folate Isonitrile ^99mTc Complexes as Potential Tumor Imaging Agents to Target Folate Receptors” (Molecules, 2021)
# Assays:
# [1] = Partition coefficient, 1-octanol / phosphate buffer pH 7.4; format: physicochemical; details: 1-octanol / phosphate buffer 0.025 M
# Procedure: The partition coefficient was measured as follows: 1.9 mL of phosphate buffer solution (0.025 M, pH 7.4), 2.0 mL of 1-octanol, and 0.1 mL of ^99mTc-CN5FA or ^99mTc-CNPFA solution were added to the centrifuge tube, and the sample was swirled for 5 min and centrifuged for 5 min (3000 r/min). Then, the radioactivity counts of the two phases were measured by taking 0.1 mL from the organic phase and the water phase. The partition coefficient P was calculated. The final partition coefficient was expressed as log P ± SD.
# KB tumor-bearing mice [2] = test: SPECT/CT imaging study in KB tumor-bearing mice; format: in vivo, BALB/c nude mice; details: 2 h post injection, about 18.5 MBq i.v.
# Procedure: The SPECT/CT imaging experiments were also divided into a normal group and an inhibition group (n = 3). The labeled solution (about 18.5 MBq) was injected into the tail vein of nude mice bearing KB tumor. The inhibition group was injected with 100 µg FA (about 4 × 10^4 µg/kg) 30 min in advance. After 2 h, the SPECT/CT scan was performed in anesthetized mice by using 1.5% isoflurane. The SPECT acquisition (peak value 140 keV, 20% width, 90° rotation, MMP 919 Collimator) was performed after 4 min of CT scanning (512 views, 2 × 2 binding, 75 kV, exposure time 230 ms). SPECT/CT images were made using HiSPECT software and vivoquant 2.5 software.
# KB tumor-bearing mice [3] = test: Biodistribution study in KB tumor-bearing mice; format: in vivo, BALB/c nude mice; details: for Tumor uptake: KB tumor
# Procedure: The biodistribution experiments were divided into normal groups and inhibition groups (n = 3), in which the inhibition group was injected with inhibitor (about 4 × 10^4 µg/kg) 30 min in advance. The KB tumor-bearing mice were decapitated 30 and 120 min after the tail vein injection of 0.1 mL labeled solution (about 7.4 × 10^4 Bq). The heart, liver, lung, kidney, spleen, stomach, bone, muscle, intestine, tumor, blood, and other related tissues and organs were wiped clean and weighed, and the radioactivity count was measured. Each tissue per gram of injection dose (%ID/g) was calculated.
# [4] = target: T1, folate receptor (KB cells) (Homo sapiens, UniProt P15328); test: In vitro competitive binding with KB cells; details: 37 °C, 2 h, competitive binding with inhibitor
# T1 construct: endogenous in cells; host or cells: KB cells
# T1 sequence (P15328 25-257): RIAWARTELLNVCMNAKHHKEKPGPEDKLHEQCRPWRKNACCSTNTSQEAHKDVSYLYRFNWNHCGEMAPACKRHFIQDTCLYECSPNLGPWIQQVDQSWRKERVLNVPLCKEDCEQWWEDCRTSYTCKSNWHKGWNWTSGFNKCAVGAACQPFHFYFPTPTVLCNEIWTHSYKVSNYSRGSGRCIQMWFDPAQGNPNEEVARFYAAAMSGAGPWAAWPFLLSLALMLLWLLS
# Procedure: KB cells were cultured with FFRPMI 1640 medium 24 h in advance on a 48-well plate with 5 × 10^4 cells per well. The labeling solution was diluted to 5 μCi/mL with the same medium after growing, and the inhibitor was prepared at different concentrations. The 48-well plates were divided into eight groups, and each group was incubated with 100 μL of inhibitor solution, 100 μL of diluted labeled solution (5 μCi/mL), and 200 μL of medium at 37 °C for 2 h.
# After removing the cell plate from the incubator, the medium was removed, and the cells were washed with PBS (0.1 M, pH 7.4). The washed cells were lysed with NaOH (1 M) for 5 min. Pyrolysates were collected in the hoses, and the radioactivity count of each hose was measured by a γ-counter. The data were analyzed with GraphPad Prism 5.0 and nonlinearly fit to the log IC50 ± SD value.
# [5] = Stability in mouse serum at 37 °C (RCP by radio-HPLC); format: in vitro ADME; details: 4 h
# Procedure: (§1) The complexes were determined by ITLC/SG of the ACD system and radio-HPLC. The ITLC/SG trip was cut into 10 equal parts, and radioactive counting of ITLC strips was determined by a γ-counter. ITLC results of both complexes were as follows: in ACD solution, [^99mTc]Tc-CN5FA and [^99mTc]Tc-CNPFA stayed at the origin (Rf = 0–0.1), while ^99mTcO4^− (Rf = 0.9–1.0) and ^99mTcO2·nH2O (Rf = 0.8–1.0) were moved to the front. Radio-HPLC was analyzed by a mobile phase system consisting of 0.1% TFA water (solvent A) and 0.1% TFA acetonitrile (solvent B) with a gradient of 0−2 min 10% B, 2−5 min 10%−90% B, 10−20 min 90% B, and 20−25 min 90%−10% B (system B) at a flow rate of 1 mL/min. All experiments were performed in triplicate.
# (§2) The stability of [^99mTc]Tc-CN5FA and [^99mTc]Tc-CNPFA in vitro was evaluated by measuring the RCP of the complexes. Stability in saline was achieved by holding the solution at room temperature for 4 h. Stability in the serum was achieved by mixing 100 μL of [^99mTc]Tc-CN5FA or [^99mTc]Tc-CNPFA with 200 μL of mouse serum at 37 °C for 4 h. After precipitation using acetonitrile, centrifugation, and concentration, the solutions were analyzed by radio-HPLC.
# [6] = Stability in saline / radiolabeling solution at room temperature (RCP by radio-HPLC); format: physicochemical; details: 4 h
# Procedure: as §1, §2
# [7] = 2 h p.i., block: FA about 4 × 10^4 µg/kg 30 min in advance
structure (smiles),measurement,setting,value
[99Tc+].[C-]#[N+]CCOCCOCCOCCOCCC(=O)NCCNC(=O)CC[C@H](NC(=O)c1ccc(NCc2cnc3nc(N)[nH]c(=O)c3n2)cc1)C(=O)O.[C-]#[N+]CCOCCOCCOCCOCCC(=O)NCCNC(=O)CC[C@H](NC(=O)c1ccc(NCc2cnc3nc(N)[nH]c(=O)c3n2)cc1)C(=O)O.[C-]#[N+]CCOCCOCCOCCOCCC(=O)NCCNC(=O)CC[C@H](NC(=O)c1ccc(NCc2cnc3nc(N)[nH]c(=O)c3n2)cc1)C(=O)O.[C-]#[N+]CCOCCOCCOCCOCCC(=O)NCCNC(=O)CC[C@H](NC(=O)c1ccc(NCc2cnc3nc(N)[nH]c(=O)c3n2)cc1)C(=O)O.[C-]#[N+]CCOCCOCCOCCOCCC(=O)NCCNC(=O)CC[C@H](NC(=O)c1ccc(NCc2cnc3nc(N)[nH]c(=O)c3n2)cc1)C(=O)O.[C-]#[N+]CCOCCOCCOCCOCCC(=O)NCCNC(=O)CC[C@H](NC(=O)c1ccc(NCc2cnc3nc(N)[nH]c(=O)c3n2)cc1)C(=O)O [[^99mTc]Tc-CNPFA],log P,[1],−2.28 ± 0.02
same,Visualization of tumor lesions by SPECT/CT,KB tumor-bearing mice [2],clearly visualized
same,T/B (tumor/blood ratio),KB tumor-bearing mice [3]; 0.5 h p.i.,1.02
same,T/M (tumor/muscle ratio),KB tumor-bearing mice [3]; 0.5 h p.i.,2.82
same,Blood uptake,"KB tumor-bearing mice [3]; 0.5 h p.i., i.v., n = 3",4.08 ± 0.54 %ID/g
same,Bone uptake,"KB tumor-bearing mice [3]; 0.5 h p.i., i.v., n = 3",1.77 ± 0.06 %ID/g
same,Heart uptake,"KB tumor-bearing mice [3]; 0.5 h p.i., i.v., n = 3",1.92 ± 0.06 %ID/g
same,Intestines uptake,"KB tumor-bearing mice [3]; 0.5 h p.i., i.v., n = 3",4.98 ± 1.57 %ID/g
same,Kidney uptake,"KB tumor-bearing mice [3]; 0.5 h p.i., i.v., n = 3",81.30 ± 4.69 %ID/g
same,Liver uptake,"KB tumor-bearing mice [3]; 0.5 h p.i., i.v., n = 3",15.84 ± 1.19 %ID/g
same,Lung uptake,"KB tumor-bearing mice [3]; 0.5 h p.i., i.v., n = 3",4.01 ± 0.30 %ID/g
same,Muscle uptake,"KB tumor-bearing mice [3]; 0.5 h p.i., i.v., n = 3",1.48 ± 0.07 %ID/g
same,Spleen uptake,"KB tumor-bearing mice [3]; 0.5 h p.i., i.v., n = 3",3.65 ± 0.72 %ID/g
same,Stomach uptake,"KB tumor-bearing mice [3]; 0.5 h p.i., i.v., n = 3",6.67 ± 0.73 %ID/g
same,Thyroid uptake,"KB tumor-bearing mice [3]; 0.5 h p.i., i.v., n = 3",0.08 ± 0.02 %ID
same,T/B (tumor/blood ratio),KB tumor-bearing mice [3]; 2 h p.i.,1.73
same,T/M (tumor/muscle ratio),KB tumor-bearing mice [3]; 2 h p.i.,3.01
same,Blood uptake,KB tumor-bearing mice [3]; [7],1.97 ± 0.34 %ID/g
same,Bone uptake,KB tumor-bearing mice [3]; [7],1.02 ± 0.10 %ID/g
same,Heart uptake,KB tumor-bearing mice [3]; [7],0.81 ± 0.12 %ID/g
same,Intestines uptake,KB tumor-bearing mice [3]; [7],1.70 ± 0.22 %ID/g
same,Kidney uptake,KB tumor-bearing mice [3]; [7],37.60 ± 2.46 %ID/g
same,Liver uptake,KB tumor-bearing mice [3]; [7],10.88 ± 1.03 %ID/g
same,Lung uptake,KB tumor-bearing mice [3]; [7],2.11 ± 0.28 %ID/g
same,Muscle uptake,KB tumor-bearing mice [3]; [7],0.51 ± 0.09 %ID/g
same,Spleen uptake,KB tumor-bearing mice [3]; [7],3.30 ± 0.66 %ID/g
same,Stomach uptake,KB tumor-bearing mice [3]; [7],2.18 ± 0.22 %ID/g
same,Thyroid uptake,KB tumor-bearing mice [3]; [7],0.05 ± 0.01 %ID
same,Blood uptake,"KB tumor-bearing mice [3]; 2 h p.i., i.v., n = 3",1.46 ± 0.03 %ID/g
same,Bone uptake,"KB tumor-bearing mice [3]; 2 h p.i., i.v., n = 3",0.79 ± 0.11 %ID/g
same,Heart uptake,"KB tumor-bearing mice [3]; 2 h p.i., i.v., n = 3",1.30 ± 0.09 %ID/g
same,Intestines uptake,"KB tumor-bearing mice [3]; 2 h p.i., i.v., n = 3",1.60 ± 0.24 %ID/g
same,Kidney uptake,"KB tumor-bearing mice [3]; 2 h p.i., i.v., n = 3",80.25 ± 1.23 %ID/g
same,Liver uptake,"KB tumor-bearing mice [3]; 2 h p.i., i.v., n = 3",10.39 ± 0.23 %ID/g
same,Lung uptake,"KB tumor-bearing mice [3]; 2 h p.i., i.v., n = 3",2.04 ± 0.06 %ID/g
same,Muscle uptake,"KB tumor-bearing mice [3]; 2 h p.i., i.v., n = 3",0.84 ± 0.04 %ID/g
same,Spleen uptake,"KB tumor-bearing mice [3]; 2 h p.i., i.v., n = 3",2.85 ± 0.26 %ID/g
same,Stomach uptake,"KB tumor-bearing mice [3]; 2 h p.i., i.v., n = 3",3.65 ± 0.75 %ID/g
same,Thyroid uptake,"KB tumor-bearing mice [3]; 2 h p.i., i.v., n = 3",0.06 ± 0.01 %ID
same,Tumor uptake,"KB tumor-bearing mice [3]; 0.5 h p.i., i.v., n = 3",4.18 ± 0.36 %ID/g
same,Tumor uptake,KB tumor-bearing mice [3]; [7],1.62 ± 0.08 %ID/g
same,Tumor uptake,"KB tumor-bearing mice [3]; 2 h p.i., i.v., n = 3",2.53 ± 0.12 %ID/g
same,IC50,[4],3.8 ± 0.07 nM
same,RCP after incubation,[5],more than 95%
same,RCP after incubation,[6],more than 95%
